In PubChem BioAssay (NCI) one finds GI50 and TGI data, which are given here for 17 compounds.

What all share (assay): NCI-60 cell line screen, 48 h
The test system of test [1] is K-562 leukemia.
Test [2] deals with MDA-MB-231 breast.
For test [3], the system named is NCI-H460 lung.
Test [4] deals with OVCAR-3 ovarian.
Test [5] deals with OVCAR-4 ovarian.
The test system of test [6] is OVCAR-8 ovarian.
In test [7] the test system is PC-3 prostate.
Test [8] has as its system T-47D breast.
The test system of test [9] is TK-10 renal.
For test [10], the system named is UACC-62 melanoma.

“And” between values parts separate entries of the source, which are not always exact repeats. Equal values may be shown once.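 Protocol summary: plate cells (96-well), add compound at 5 concentrations, incubate 48 h, interpolate endpoints linearly. The concentration for 50% growth inhibition is given as GI50. At the TGI there is no net growth.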

Turning to `COc1ccc2c(c1)c(=O)oc1cc(OC/C(=N\O)c3ccc(F)cc3)ccc12`, the GI50 was 25.6 µM in test [1]; 18 µM in test [2]; 18.6 µM in test [3]; 20.4 µM in test [4]; 18.5 µM in [5]; 27.3 µM in test [6]. Further, the GI50 is 24.1 µM in test [7], 28.4 µM in [8], 17.5 µM in test [9] and 15.1 µM in test [10]. The TGI in [1] was over 100 µM; in test [2], 43.4 µM; in test [3] it was 53.3 µM; in [4], 47.4 µM; in test [5], 44.5 µM; in test [6], 97.5 µM. Besides, the TGI in test [7] was 79 µM; in [8], over 100 µM; in [9], 52.8 µM; in test [10] it was 31.2 µM.

In the case of `COc1cc2c(/C=C3/C(=O)Nc4c3ccc3ccccc43)c(Cl)[nH]c2cc1C`, the GI50 was under 0.005 µM in test [1]; 0.0366 µM in test [2]; 0.0244 µM in [3]; 0.00854 µM in test [4]; 0.0176 µM in test [6]; 0.0152 µM in [7]. For the same compound, the GI50 was over 50 µM in test [8], 30.5 µM in test [9] and 0.0119 µM in test [10]. Moreover, the TGI is 0.58 µM in [1]; over 21.8 µM in test [3]; 0.0294 µM in test [4]; 1.82 µM in [6]; over 16.8 µM in [7]; over 50 µM in test [8]. Also, the figures for the TGI in test [9] and in test [10] were over 50 µM and over 19.8 µM, respectively.

As for `COc1ccc(/C=C/C(=O)c2ccc(NC(=O)CSc3nnc(-c4cc(OC)c(OC)c(OC)c4)o3)cc2)cc1`, the GI50 in test [2] was 1.82 µM; in [3] it was 2 µM; in [4], 1.78 µM; in test [5], 2 µM; in test [6], 2.32 µM; in test [7] it was 1.75 µM. The GI50 is 2.05 µM in test [8], 1.52 µM in [9] and 1.73 µM in test [10]. The TGI came out at 3.5 µM in test [2]; 3.85 µM in test [3]; 3.38 µM in test [4]; 4.62 µM in [5]; 5.73 µM in test [6]; 3.3 µM in test [7]. The TGI in [8] was determined as 5.08 µM; in test [9], 3.03 µM; in test [10], 3.43 µM.

Turning to `COC(=O)/C(Br)=C/c1c[nH]c2ccc(Br)cc12`, the GI50 was over 100 µM in [1]; 11.2 µM in test [2]; 17.6 µM in test [3]; 16.2 µM in [4]; 10.7 µM in test [5]; 18.2 µM in test [6]. In addition, the GI50 was 11.2 µM in [7], 11.1 µM in test [8], 19 µM in [9] and 12.4 µM in [10]. Further, the TGI in test [1] was over 100 µM; in test [2], 30.4 µM; in [3] it was 36.9 µM; in [4], 66.9 µM; in test [5], 56.8 µM; in test [6], 34.3 µM. Also, the TGI in test [7] is 27.8 µM; in test [8] it was 24.5 µM; in [9] it was 49.4 µM; in [10], 26.7 µM.

For `COc1ccc(OC)c(/C=C/c2cnnc3ccccc23)c1`, the TGI in test [1], in [2], in test [3], in test [4], in [5] and in [6] was over 10 µM throughout. The TGI in test [7], in [8], in [9] and in [10] was over 10 µM throughout.

Turning to `O=C(Nc1cccc(-n2cc(-c3ccncc3)c(-c3ccc(O)c(Cl)c3)n2)c1)Nc1ccc(Cl)c(C(F)(F)F)c1`, the GI50 is 2.44 µM in [1]; 1.84 µM in [2]; 2.56 µM in [3]; 2.77 µM in test [5]; 1.77 µM in test [7]; 2.07 µM in test [8]. Also, the GI50 in test [9] was 2.96 µM; in test [10] it was 2.13 µM. The TGI in test [1] is 9.79 µM; in test [2], 7.63 µM; in test [3], 9.51 µM; in test [5], 9.97 µM; in test [7], 4.36 µM; in test [8], 6.83 µM. Besides, the TGI in test [9] is 7.16 µM; in test [10], 5.07 µM.

With `N=C1N=Nc2nc(C3(c4nc5n(c4O)C(=N)N=N5)Cc4ccccc4C3=O)c(O)n21` (configuration not stated), the TGI in [1], in test [2], in test [3], in test [4], in test [5] and in [6] was over 100 µM each time. Moreover, the TGI in test [7], in [8], in test [9] and in test [10] was over 100 µM each time. The GI50 in [5] is over 100 µM.

As to `Cc1cc(Cl)ccc1Nc1nc(C(F)(F)F)ccc1C(=O)N/N=C/c1ccc(F)cc1`, the GI50 in test [1] was 1.89 µM; in test [2], 1.47 µM; in test [3] it was 1.95 µM; in test [4], 0.491 µM; in test [5] it was 0.513 µM; in test [6] it was 1.48 µM. The GI50 in test [7] is 1.85 µM; in test [8] it was 1.6 µM; in test [9], 1.7 µM; in test [10], 1.79 µM. Also, the TGI in [1] was 6.05 µM; in test [2], 5.94 µM; in [3] it was 6.04 µM; in test [4], 2.24 µM; in [5], 12.9 µM; in test [6] it was 6.33 µM. Besides, the TGI in test [7] was found to be 8.64 µM; in test [8], 7.13 µM; in test [9], 7.6 µM; in [10], 3.82 µM.

For the compound `Nc1nn(C(=O)Nc2ccc(Cc3ccccc3)cc2)c2ccccc12`, the GI50 in [1] is 1.2 µM; in [2], 0.847 µM; in [3] it was 0.409 µM; in test [4], 6.23 µM; in test [5] it was 10.7 µM; in test [6] it was 21.9 µM. Besides, the GI50 is 13.5 µM in [7], 1.55 µM in test [8], 27.2 µM in test [9] and 0.353 µM in test [10]. Besides, the TGI came to 33.8 µM in [1]; 43.9 µM in test [2]; 13 µM in test [3]; 63.1 µM in test [4]; 40.4 µM in [5]; 63.9 µM in test [6]. The TGI in [7] was 51.1 µM; in [8] it was over 100 µM; in test [9] it was over 100 µM; in test [10] it was over 100 µM.

As for `Cc1ccc(S(=O)(=O)C2=C3C(=C(c4ccccc4)c4ccccc43)CN(S(=O)(=O)c3ccc(C)cc3)C2)cc1`, the GI50 was 2.08 µM in test [1]; 2.9 µM in test [2]; 1.94 µM in [3]; 4.34 µM in test [4]; 5.31 µM in test [5]; 2.65 µM in test [6]. In addition, the GI50 in test [7] was 3.39 µM; in test [8] it was 2.91 µM; in test [9], 14.2 µM; in test [10] it was 4.85 µM. The TGI is over 100 µM in [1]; 11.1 µM in test [2]; 15.1 µM in test [3]; 18.8 µM in test [4]; 72.9 µM in test [5]; 38.1 µM in [6]. The TGI in [7] was over 100 µM; in test [8] it was 31.5 µM; in [9], 30.1 µM; in test [10], 24.9 µM.

Consider `CCOC(=O)C1=C(N)Oc2cc(OC)ccc2C1c1ccc(F)c(F)c1` (configuration not stated), for which the GI50 in test [2] was 2.48 µM; in [3], 1.01 µM; in test [4] it was 0.497 µM; in test [5], 3.37 µM; in test [6], 3.28 µM; in test [7] it was 2.33 µM. In addition, the results for the GI50 in [8], in test [9] and in [10] were 1.72 µM, 9.5 µM and 0.558 µM, respectively. In addition, the TGI was 13.8 µM in [2]; 15.2 µM in test [3]; 6.09 µM in [4]; 18.6 µM in [5]; 19.2 µM in [6]; 15.1 µM in test [7]. The values for the TGI in test [8], in test [9] and in test [10] were 20 µM, 21.8 µM and 15.4 µM, respectively.

For `CCOCC[P+](c1ccccc1)(c1ccccc1)c1ccccc1`, the GI50 was 14.9 µM in test [1]; 22.6 µM in [2]; 25.7 µM in test [3]; 19.3 µM in test [4]; 11.9 µM in test [5]; 22.2 µM in [6]. In addition, the GI50 is 10.8 µM in test [7] and 4.21 µM in test [8]. The TGI in test [1], in test [2], in test [3], in [4], in test [5] and in test [6] was over 100 µM each time. Also, the TGI in test [7] was 72.9 µM; in test [8], over 100 µM.

`COC(=O)C12OCC34C(CC5C(C)=CC(=O)C(O)C5(C)C3C(O)C1O)OC(=O)C(OC(=O)CC(C)C)C24` (configuration not stated): the TGI was 0.0247 µM in [2]; 0.0121 µM in test [7]; 0.006 µM in test [8]; 0.16 µM and 0.477 µM in test [9]. In addition, the GI50 in test [4] was under 0.0518 µM; in test [6], < 0.0391 µM and 0.05 µM; in test [9], 0.0166 µM; in test [10] it was 0.0478 µM and 0.05 µM.

For `C#Cc1ccc(-n2c(/C=C/c3ccc4ccccc4n3)nc3ncccc3c2=O)cc1`, the GI50 in test [1] was 0.33 µM; in [2], 0.544 µM; in test [3], 0.776 µM; in test [4], 0.317 µM; in [5] it was 0.315 µM; in test [6], 0.763 µM. Besides, the results for the GI50 in test [7], in [8] and in test [10] were 0.341 µM, 0.366 µM and 0.394 µM, respectively. Further, the TGI was over 100 µM in [1]; 1.65 µM in test [2]; 2.91 µM in test [3]; 0.905 µM in test [4]; 1.81 µM in test [5]; 2.95 µM in [6]. The TGI was 1.75 µM in test [7], 1.28 µM in test [8] and 1.75 µM in [10].

With `Cn1c2ccccc2c(=S)c2cc(NC(=O)CCCCC(=O)Nc3ccc4c(c3)c(=S)c3ccccc3n4C)ccc21`, the TGI in [1], in test [2], in test [3], in [4], in [6] and in [7] was over 100 µM throughout. For the same compound, the TGI in test [8], in test [9] and in test [10] was over 100 µM each time.

For `O=CNc1ccc2c(c1)Cc1cc([N+](=O)[O-])ccc1-2`, the GI50 is 4.11 µM in test [2]; 2.78 µM in test [3]; 1.56 µM in test [4]; over 65.5 µM in test [5]; 4.99 µM in [6]; 4.87 µM in [7]. Also, the GI50 is over 100 µM in test [8], 10.2 µM in test [9] and 4.3 µM in [10]. For the same compound, the TGI in test [2] is over 100 µM; in [3], over 60.3 µM; in test [4], over 100 µM; in test [5] it was over 100 µM; in [6], over 100 µM; in test [7], over 100 µM. The TGI in test [8], in test [9] and in [10] was over 100 µM in each case.

`CC(=O)/C=C/c1ccc(N(C)Cc2ccc(C(C)(C)C)cc2)cc1`: the GI50 is 122 µM in test [2]; 144 µM in [3]; 126 µM in test [4]; 125 µM in test [5]; 148 µM in test [6]; 97.2 µM in test [7]. Besides, the GI50 is 47.8 µM in [8], 348 µM in test [9] and 113 µM in test [10]. The TGI worked out at 293 µM in test [2]; 376 µM in test [3]; 264 µM in [4]; 330 µM in [5]; 516 µM in test [6]; 465 µM in test [7]. Also, the TGI stood at 405 µM in test [8], 890 µM in [9] and 255 µM in test [10].
